Test results: paper doi:10.1101/2021.10.07.463234v2 (biorxiv, 2021)
Structures can show the parent of a compound that is named as a salt.

Biological target: SARS-CoV-2 Mac1 (Severe acute respiratory syndrome coronavirus 2, UniProt P0DTD1)
Test: biochemical
Details: read-out: %inhibition

Row | Compound | inhibition at 100 µM [%]
1 | CN1CCN(CCOc2cc(OC3CCOCC3)c3c(Nc4c(Cl)ccc5c4OCO5)ncnc3c2)CC1 [Saracatinib (AZD0530)] | 32.3
2 | O=C(O)c1cn(-c2ccc(F)cc2)c2cc(N3CCNCC3)c(F)cc2c1=O [Sarafloxacin HCl] | 15.7
3 | COc1cccc(CCc2ccccc2OCC(CN(C)C)OC(=O)CCC(=O)O)c1 (centres unmarked) [Sarpogrelate hydrochloride] | 0
4 | N#C[C@@H]1C[C@@H]2C[C@@H]2N1C(=O)[C@@H](N)C12CC3CC(CC(O)(C3)C1)C2 [Saxagliptin hydrate] | 8.79
5 | N#C[C@@H]1C[C@H]2C[C@H]2N1C(=O)[C@@H](N)[C@@]12C[C@@H]3C[C@@H](C[C@@](O)(C3)C1)C2 [Saxagliptin] | 12.8
6 | CN1[C@@H]2C[C@@H](OC(=O)[C@H](CO)c3ccccc3)C[C@H]1[C@@H]1O[C@@H]12 [Scopolamine HBr] | 0
7 | Cc1ncc([N+](=O)[O-])n1CC(C)O (centres unmarked) [Secnidazole] | 34.4
8 | CO[C@H]1C[C@H](O[C@@H]2/C(C)=C/C[C@@H]3C[C@@H](C[C@]4(CC[C@H](C)[C@@H](C5CCCCC5)O4)O3)OC(=O)[C@@H]3C=C(C)/C(=N/O)[C@H]4OC/C(=C\C=C\[C@@H]2C)[C@]43O)O[C@@H](C)[C@@H]1O [Selamectin] | 13.4
9 | CC(C)N(CCCCOCC(=O)NS(C)(=O)=O)c1cnc(-c2ccccc2)c(-c2ccccc2)n1 [Selexipag] | 0
10 | O=C(/C=C\n1cnc(-c2cc(C(F)(F)F)cc(C(F)(F)F)c2)n1)NNc1cnccn1 [Selinexor (KPT-330)] | 0
11 | NC(=O)C1CCCc2c1[nH]c1ccc(Cl)cc21 (centres unmarked) [Selisistat (EX 527)] | 15.7
12 | Cn1cnc2c(F)c(Nc3ccc(Br)cc3Cl)c(C(=O)NOCCO)cc21 [Selumetinib (AZD6244)] | 24.4
13 | CC(C)[C@H](O)C(=O)N[C@@H](C)C(=O)N[C@@H]1C(=O)N(C)CCc2ccccc21 [Semagacestat (LY450139)] | 0
14 | NCCc1c[nH]c2ccc(O)cc12 [Serotonin HCl] | 8.8
15 | Clc1ccc(C(Cn2ccnc2)OCc2csc3c(Cl)cccc23)c(Cl)c1 (centres unmarked) [Sertaconazole nitrate] | 0
16 | CCCc1nn(C)c2c(=O)[nH]c(-c3cc(S(=O)(=O)N4CCN(C)CC4)ccc3OCC)nc12 [Sildenafil Citrate] | 0
17 | COc1cc([C@H]2Oc3cc([C@H]4Oc5cc(O)cc(O)c5C(=O)[C@@H]4O)ccc3O[C@@H]2CO)ccc1O [Silibinin] | 0
18 | O=C(O)c1ccc2c(c1)nc(Nc1cccc(Cl)c1)c1ccncc12 [Silmitasertib (CX-4945)] | 0
19 | C[C@H](Cc1cc2c(c(C(N)=O)c1)N(CCCO)CC2)NCCOc1ccccc1OCC(F)(F)F [Silodosin] | 0
20 | COc1ccc2c(O[C@@H]3C[C@H]4C(=O)N[C@]5(C(=O)NS(=O)(=O)C6CC6)C[C@H]5/C=C\CCCCN(C)C(=O)[C@@H]4C3)cc(-c3nc(C(C)C)cs3)nc2c1C [Simeprevir] | 11.4
21 | CCC(C)(C)C(=O)O[C@H]1C[C@@H](C)C=C2C=C[C@H](C)[C@H](CC[C@@H]3C[C@@H](O)CC(=O)O3)[C@H]21 [Simvastatin] | 14
22 | CN[C@@H]1[C@@H](O)[C@@H](O[C@@H]2[C@@H](O)[C@H](O[C@H]3OC(CN)=CC[C@H]3N)[C@@H](N)C[C@H]2N)OC[C@]1(C)O [Sisomicin sulfate] | 0
23 | N[C@@H]1CN(c2c(F)cc3c(=O)c(C(=O)O)cn([C@@H]4C[C@@H]4F)c3c2Cl)CC12CC2 [Sitafloxacin Hydrate] | 5.2
24 | N[C@@H](CC(=O)N1CCn2c(nnc2C(F)(F)F)C1)Cc1cc(F)c(F)cc1F [Sitagliptin] | 0
25 | CC(C)(C)C(=O)Oc1ccc(S(=O)(=O)Nc2ccccc2C(=O)NCC(=O)O)cc1 [Sivelestat (ONO-5046)] | 0
26 | Nc1ccc(C(=O)O)c(O)c1 [Sodium 4-Aminosalicylate] | 0
